Measured values from PubChem BioAssay AID248 (DTP/NCI, 2004).
Values joined by “and” are separate entries in the source; they are usually repeats but may differ in a detail not shown here. Equal entries are not always repeated. Toxic doses and inconclusive results are not listed. Cut-off read from the data, not from the text of the source: active = T/C of 150% or more; inactive = T/C below 125%.

System: L1210 leukemia ip in BDF1 mice, survival T/C
Assay: NCI In Vivo Anticancer Drug Screen. Data for tumor model L1210 Leukemia (intraperitoneal) in B6D2F1 (BDF1) mice
Conditions: endpoint: mean survival time, higher = longer survival
Summary of the method: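 Read-out is survival time, reported as the treated-group measurement over the vehicle-control measurement.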

[1] = dose: 100.0 mg/kg/injection, schedule: Q04DX003 (ip), vehicle: saline with Tween-80
[2] = dose: 200.0 mg/kg/injection, schedule: Q04DX003 (ip), vehicle: saline with Tween-80
[3] = dose: 400.0 mg/kg/injection, schedule: Q04DX003 (ip), vehicle: saline with Tween-80
[4] = dose: 100.0 mg/kg/injection, schedule: Q01DX009 (ip), vehicle: Klucel (hydroxypropylcellulose) (HPC)
[5] = dose: 200.0 mg/kg/injection, schedule: Q01DX009 (ip), vehicle: Klucel (hydroxypropylcellulose) (HPC)
[6] = dose: 400.0 mg/kg/injection, schedule: Q01DX009 (ip), vehicle: Klucel (hydroxypropylcellulose) (HPC)
[7] = dose: 100.0 mg/kg/injection, schedule: Q01DX009 (ip), vehicle: saline with Tween-80
[8] = dose: 200.0 mg/kg/injection, schedule: Q01DX009 (ip), vehicle: saline with Tween-80
[9] = dose: 400.0 mg/kg/injection, schedule: Q01DX009 (ip), vehicle: saline with Tween-80
[10] = dose: 100.0 mg/kg/injection, schedule: Q04DX003 (ip), vehicle: Klucel (hydroxypropylcellulose) (HPC)
[11] = dose: 200.0 mg/kg/injection, schedule: Q04DX003 (ip), vehicle: Klucel (hydroxypropylcellulose) (HPC)
[12] = dose: 400.0 mg/kg/injection, schedule: Q04DX003 (ip), vehicle: Klucel (hydroxypropylcellulose) (HPC)

Measured: T/C

Nc1ncnc2nc(-c3cc(Cl)c(OCc4ccccc4)c(Cl)c3)[nH]c12
inactive: dose: 100.0 mg/kg/injection, schedule: Q01DX001 (ip), vehicle: Klucel (hydroxypropylcellulose) (HPC) 100 % of control | dose: 200.0 mg/kg/injection, schedule: Q01DX001 (ip), vehicle: Klucel (hydroxypropylcellulose) (HPC) 89 % of control | dose: 400.0 mg/kg/injection, schedule: Q01DX001 (ip), vehicle: Klucel (hydroxypropylcellulose) (HPC) 92 % of control

CC1CC/C(=C\c2ccccc2)C(=O)/C1=C/c1ccccc1 (stereo not drawn)
inactive: dose: 25.0 mg/kg/injection, schedule: Q01DX009 (ip), vehicle: DMSO 92 % of control | dose: 50.0 mg/kg/injection, schedule: Q01DX009 (ip), vehicle: DMSO 94 % of control | dose: 100.0 mg/kg/injection, schedule: Q01DX009 (ip), vehicle: DMSO 94 % of control and 91 % of control | dose: 100.0 mg/kg/injection, schedule: Q04DX003 (ip), vehicle: DMSO 105 % of control | dose: 200.0 mg/kg/injection, schedule: Q01DX009 (ip), vehicle: DMSO 102 % of control | dose: 200.0 mg/kg/injection, schedule: Q04DX003 (ip), vehicle: DMSO 100 % of control | dose: 400.0 mg/kg/injection, schedule: Q04DX003 (ip), vehicle: DMSO 95 % of control

c1ccc2nc(NN=C3CCCCC3)ccc2c1
inactive: dose: 10.0 mg/kg/injection, schedule: Q01DX001 (ip), vehicle: saline 107 % of control | dose: 20.0 mg/kg/injection, schedule: Q01DX001 (ip), vehicle: saline 97 % of control | dose: 40.0 mg/kg/injection, schedule: Q01DX001 (ip), vehicle: saline 95 % of control

CN1C(=S)c2ccccc2S1(=O)=O
inactive: [1] 106 % of control | [2] 94 % of control | [3] 92 % of control

O=c1[nH]c2ccccc2c2ccccc12
inactive: [1] 92 % of control | [2] 97 % of control | [3] 95 % of control

CCC(=O)Nc1ccc(Cl)cc1OC
inactive: [4] 100 % of control | [5] 102 % of control | [6] 100 % of control

Cc1sc2ccccc2[n+]1CCC(=O)O
inactive: dose: 100.0 mg/kg/injection, schedule: Q01DX009 (ip), vehicle: gum acacia 94 % of control | dose: 100.0 mg/kg/injection, schedule: Q04DX003 (ip), vehicle: gum acacia 95 % of control | dose: 200.0 mg/kg/injection, schedule: Q01DX009 (ip), vehicle: gum acacia 101 % of control | dose: 200.0 mg/kg/injection, schedule: Q04DX003 (ip), vehicle: gum acacia 96 % of control | dose: 400.0 mg/kg/injection, schedule: Q01DX009 (ip), vehicle: gum acacia 100 % of control | dose: 400.0 mg/kg/injection, schedule: Q04DX003 (ip), vehicle: gum acacia 95 % of control

Nc1nc(-c2ccccc2)cs1
inactive: dose: 25.0 mg/kg/injection, schedule: Q01DX009 (ip), vehicle: saline with Tween-80 106 % of control | dose: 25.0 mg/kg/injection, schedule: Q04DX003 (ip), vehicle: saline with Tween-80 100 % of control | dose: 50.0 mg/kg/injection, schedule: Q01DX009 (ip), vehicle: saline with Tween-80 108 % of control | dose: 50.0 mg/kg/injection, schedule: Q04DX003 (ip), vehicle: saline with Tween-80 92 % of control | [7] 106 % of control | [1] 92 % of control

COC(=N)Cc1ccc(OC)c(OC)c1
inactive: [7] 94 % of control | [8] 89 % of control | [9] 92 % of control

Clc1c2ccccc2c(Cl)c2ccccc12
inactive: dose: 3.1 mg/kg/injection, schedule: Q04DX002 (ip), vehicle: Klucel (hydroxypropylcellulose) (HPC) 89 % of control | dose: 6.25 mg/kg/injection, schedule: Q04DX002 (ip), vehicle: Klucel (hydroxypropylcellulose) (HPC) 100 % of control | dose: 12.5 mg/kg/injection, schedule: Q04DX002 (ip), vehicle: Klucel (hydroxypropylcellulose) (HPC) 93 % of control | dose: 25.0 mg/kg/injection, schedule: Q04DX002 (ip), vehicle: Klucel (hydroxypropylcellulose) (HPC) 90 % of control

Cc1cc(=O)[nH]c2c(C)cc(Cc3cc(C)c4[nH]c(=O)cc(C)c4c3)cc12
inactive: dose: 100.0 mg/kg/injection, schedule: Q01DX001 (ip), vehicle: carboxymethylcellulose (CMC) 96 % of control | dose: 200.0 mg/kg/injection, schedule: Q01DX001 (ip), vehicle: carboxymethylcellulose (CMC) 101 % of control | dose: 400.0 mg/kg/injection, schedule: Q01DX001 (ip), vehicle: carboxymethylcellulose (CMC) 103 % of control

CCCCCCCCCCCCCCCCCC(=O)Oc1c(C(C)CC)cc([N+](=O)[O-])cc1[N+](=O)[O-] (stereo not drawn)
inactive: dose: 100.0 mg/kg/injection, schedule: Q04DX002 (ip), vehicle: Klucel (hydroxypropylcellulose) (HPC) 89 % of control | dose: 200.0 mg/kg/injection, schedule: Q04DX002 (ip), vehicle: Klucel (hydroxypropylcellulose) (HPC) 86 % of control | dose: 400.0 mg/kg/injection, schedule: Q04DX002 (ip), vehicle: Klucel (hydroxypropylcellulose) (HPC) 105 % of control

CC(=O)c1cccc(NC(=O)Oc2ccc(C(=O)OCc3ccccc3)cc2)c1
inactive: [4] 98 % of control | [5] 95 % of control | [6] 106 % of control

O=C(NCCCl)NNC(=O)c1ccccc1
inactive: [10] 117 % of control | [11] 112 % of control

CCCCCCCCCC(O)CCC (stereo not drawn)
inactive: [4] 103 % of control | [10] 96 % of control | [5] 109 % of control | [11] 91 % of control | [6] 103 % of control | [12] 89 % of control

COc1cc(C=O)c(Oc2cc(C=O)ccc2OC)cc1OC
inactive: [10] 97 % of control | [11] 100 % of control | [12] 103 % of control

CCOC(=O)C(O)C(C#N)c1ccccc1 (stereo not drawn)
inactive: dose: 100.0 mg/kg/injection, schedule: Q01DX009 (ip), vehicle: other 94 % of control | dose: 100.0 mg/kg/injection, schedule: Q04DX003 (ip), vehicle: other 118 % of control | dose: 200.0 mg/kg/injection, schedule: Q01DX009 (ip), vehicle: other 106 % of control | dose: 200.0 mg/kg/injection, schedule: Q04DX003 (ip), vehicle: other 101 % of control | dose: 400.0 mg/kg/injection, schedule: Q01DX009 (ip), vehicle: other 95 % of control | dose: 400.0 mg/kg/injection, schedule: Q04DX003 (ip), vehicle: other 105 % of control

Cc1c2ccc3ccccc3c2c[n+]2ccccc12
inactive: dose: 5.0 mg/kg/injection, schedule: Q01DX009 (ip), vehicle: saline sonified 102 % of control | dose: 7.0 mg/kg/injection, schedule: Q01DX009 (ip), vehicle: saline sonified 116 % of control and 120 % of control | dose: 10.7 mg/kg/injection, schedule: Q01DX009 (ip), vehicle: saline sonified 117 % of control | dose: 11.0 mg/kg/injection, schedule: Q01DX009 (ip), vehicle: saline sonified 120 % of control | dose: 15.0 mg/kg/injection, schedule: Q04DX003 (ip), vehicle: Klucel (hydroxypropylcellulose) (HPC) 108 % of control | dose: 21.0 mg/kg/injection, schedule: Q04DX003 (ip), vehicle: Klucel (hydroxypropylcellulose) (HPC) 107 % of control | dose: 24.0 mg/kg/injection, schedule: Q01DX009 (ip), vehicle: saline sonified 114 % of control | dose: 33.0 mg/kg/injection, schedule: Q04DX003 (ip), vehicle: Klucel (hydroxypropylcellulose) (HPC) 105 % of control | dose: 48.0 mg/kg/injection, schedule: Q04DX003 (ip), vehicle: Klucel (hydroxypropylcellulose) (HPC) 111 % of control

OC1CCCC[CH]1[Hg][Cl] (stereo not drawn)
inactive: dose: 5.0 mg/kg/injection, schedule: Q01DX001 (ip), vehicle: saline 95 % of control

Cc1ccnc(SCC(=O)O)n1
inactive: [4] 108 % of control | [10] 96 % of control | [5] 95 % of control | [11] 96 % of control | [6] 90 % of control | [12] 95 % of control

CCOC(=O)Oc1c(OC)cc(C(=O)O[C@@H]2C[C@@H]3CN4CCc5c([nH]c6cc(OC)ccc56)[C@H]4C[C@@H]3[C@H](C(=O)OC)[C@H]2OC)cc1OC
inactive: dose: 25.0 mg/kg/injection, schedule: Q04DX003 (ip), vehicle: Klucel (hydroxypropylcellulose) (HPC) 101 % of control | dose: 50.0 mg/kg/injection, schedule: Q04DX003 (ip), vehicle: Klucel (hydroxypropylcellulose) (HPC) 106 % of control | [10] 95 % of control | [11] 98 % of control

O=C(CNC(=O)OCc1ccccc1)NC(Cc1c[nH]c2ccccc12)C(=O)OCc1ccccc1 (stereo not drawn)
inactive: [1] 96 % of control | [2] 100 % of control | [3] 95 % of control

CCCCCCCCCCCCCCC(=O)N/N=C/c1ccc([N+](=O)[O-])s1
inactive: [7] 91 % of control | [8] 88 % of control | [9] 100 % of control
